Values belong to the compound of their own block, whether it stands above or below them.
Key:
[1] = test system: epithelial membrane
[2] = test system: nasal mucosa; settings: in vivo
[3] = Blood plasma melatonin concentrations and pharmacokinetics in healthy male volunteers, by radioimmunoassay (cross-over study); type: in vivo, human; settings: for Tmax: human, plasma
Method: An open randomized, four treatment (treatments A, B, C and D below), cross-over study involving 8 healthy male volunteers was carried out. Before drug administration, the subjects were fasted overnight for at least 10 hours. The administered formulations were as follows:
A: 100 μl water, intranasal (placebo);

[4] = cited from earlier work
[5] = test system: nasal mucosa; settings: propylene glycol in place of ethanol; cited from earlier work

Compound: OCC(O)CO [glycerol]
- toxicity towards the epithelial membrane [1]: does not exert toxicity towards the epithelial membrane
- irritation of the nasal mucosa [2]: does not lead to irritation of the nasal mucosa

- Cmax, times higher than that resulting from the oral dose ([3]; 0.2 mg nasal vs 2.5 mg oral): about 5 times
- amount of melatonin absorbed, 0.2 mg nasal dose vs 2.5 mg oral dose ([3]; 0.2 mg nasal vs 2.5 mg oral): About the same amount
- amount of melatonin absorbed, 0.4 mg nasal dose vs 0.2 mg nasal dose ([3]; 0.4 mg nasal vs 0.2 mg nasal): proportional
- Cmax, times higher than that resulting from the oral dose ([3]; 0.4 mg nasal vs 2.5 mg oral): ~11 times
- dose proportionality of peak plasma concentrations (Cmax) ([3]; 0.2 and 0.4 mg nasal doses): proportional
- Tmax ([3]; po, 2.5 mg): 1.5 h
- Tmax ([3]; 0.2 and 0.4 mg nasal doses): < 0.167 h
- rate of absorption ([3]; nasally administered): absorbed extremely rapidly
Compound: COc1ccc2[nH]cc(CCNC(C)=O)c2c1 [melatonin, N-acetyl-5-methoxytryptamine]
- solubility in water [4]: low solubility

Compound: CC(O)CO (stereo not drawn) [propylene glycol]
- toxicity to the nasal mucosa [5]: adversely affects the nasal mucosa

Reference: patent US6007834A (priority 1997, dated 1999)
